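Results reflect a 48-hour exposure of cells in 96-well plates to compound at five concentrations. TGI marks complete inhibition of growth.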
Legend:
Assay in all cases: NCI anticancer screen, dose series, 48 h
NCI-H460 lung = test system: NCI-H460 lung
HOP-92 NSCLC = test system: HOP-92 NSCLC
OVCAR-4 ovarian = test system: OVCAR-4 ovarian
PC-3 prostate = test system: PC-3 prostate
NCI-H23 lung = test system: NCI-H23 lung
SK-OV-3 ovarian = test system: SK-OV-3 ovarian
UO-31 renal = test system: UO-31 renal
SF-268 CNS = test system: SF-268 CNS
ACHN renal = test system: ACHN renal
SN12C renal = test system: SN12C renal
SW-620 colon = test system: SW-620 colon
OVCAR-3 ovarian = test system: OVCAR-3 ovarian
HCT-116 colon = test system: HCT-116 colon
SNB-19 CNS = test system: SNB-19 CNS
U251 CNS = test system: U251 CNS
LOX IMVI melanoma = test system: LOX IMVI melanoma
UACC-62 melanoma = test system: UACC-62 melanoma
HL-60(TB) leukemia = test system: HL-60(TB) leukemia
HT29 colon = test system: HT29 colon
IGROV1 ovarian = test system: IGROV1 ovarian
HCC-2998 colon = test system: HCC-2998 colon
SF-295 CNS = test system: SF-295 CNS
NCI/ADR-RES ovarian = test system: NCI/ADR-RES ovarian
T-47D breast = test system: T-47D breast
NCI-H522 lung = test system: NCI-H522 lung
COLO 205 colon = test system: COLO 205 colon
A549 NSCLC = test system: A549 NSCLC
UACC-257 melanoma = test system: UACC-257 melanoma
MALME-3M melanoma = test system: MALME-3M melanoma
CCRF-CEM leukemia = test system: CCRF-CEM leukemia
HS 578T breast = test system: HS 578T breast
EKVX NSCLC = test system: EKVX NSCLC
HOP-62 NSCLC = test system: HOP-62 NSCLC
HCT-15 colon = test system: HCT-15 colon
SK-MEL-5 melanoma = test system: SK-MEL-5 melanoma
OVCAR-8 ovarian = test system: OVCAR-8 ovarian
RXF 393 renal = test system: RXF 393 renal
786-0 renal = test system: 786-0 renal
K-562 leukemia = test system: K-562 leukemia
SF-539 CNS = test system: SF-539 CNS
SR leukemia = test system: SR leukemia
SK-MEL-28 melanoma = test system: SK-MEL-28 melanoma
MDA-MB-435 = test system: MDA-MB-435
MDA-N = test system: MDA-N
KM12 colon = test system: KM12 colon
DU-145 prostate = test system: DU-145 prostate
SNB-75 CNS = test system: SNB-75 CNS
M14 melanoma = test system: M14 melanoma
CAKI-1 renal = test system: CAKI-1 renal
MCF7 breast = test system: MCF7 breast
SK-MEL-2 melanoma = test system: SK-MEL-2 melanoma
RPMI-8226 leukemia = test system: RPMI-8226 leukemia
A498 renal = test system: A498 renal
MOLT-4 leukemia = test system: MOLT-4 leukemia
BT-549 breast = test system: BT-549 breast
OVCAR-5 ovarian = test system: OVCAR-5 ovarian
TK-10 renal = test system: TK-10 renal
MDA-MB-231 breast = test system: MDA-MB-231 breast
NCI-H226 lung = test system: NCI-H226 lung

Measured: TGI

CNc1ncnc2c1ncn2C1C=CC(COS(N)(=O)=O)C1 (configuration not stated)
not listed: OVCAR-5 ovarian | TK-10 renal | MDA-MB-231 breast | NCI-H226 lung
> 100 µM: all other assays above

C=CCN1C(=O)C=C(c2ccccc2)n2ncc3cccc1c32
not listed: NCI-H460 lung | OVCAR-4 ovarian | HCC-2998 colon | RXF 393 renal | K-562 leukemia | MDA-MB-435 | SNB-75 CNS
> 100 µM: all other assays above

— PubChem BioAssay (NCI)
